In ChEMBL document CHEMBL1135713, “Antitumor benzothiazoles. 16. Synthesis and pharmaceutical properties of antitumor 2-(4-aminophenyl)benzothiazole amino acid prodrugs” (J Med Chem, 2002):

Key:
[1] = The compound was tested for its solubility at a pH of 10.5; assay type: ADME; details: pH 10.5; read-out: S
[2] = The compound was tested for its solubility at a pH of 5.0; assay type: ADME; details: pH 5; read-out: S
[3] = The compound was tested for its solubility at a pH of 6.3; assay type: ADME; details: pH 6.3; read-out: S
[4] = The compound was tested for its solubility at a pH of 7.4; assay type: ADME; details: pH 7.4; read-out: S
[5] = The compound was tested for its solubility at a pH of 8.5; assay type: ADME; details: pH 8.5; read-out: S
[6] = The compound was tested for its solubility at a pH of 9.6; assay type: ADME; details: pH 9.6; read-out: S
[7] = Delta logP; assay type: ADME; details: octanol/water
[8] = log P value in cyclohexane:buffer at pH 7.4; assay type: physicochemical

solubility [1] [µg/mL] | solubility [2] [µg/mL] | solubility [3] [µg/mL] | solubility [4] [µg/mL] | solubility [5] [µg/mL] | solubility [6] [µg/mL] | delta logP [7] | logD [8] | SMILES
10 | > 53200 | 7000 | 390 | 75 | 20 | – | – | Cc1cc(-c2nc3cc(F)ccc3s2)ccc1NC(=O)[C@@H](N)CCCCN.Cl.Cl
– | – | – | – | – | – | 1.45 | 2.51 | Cc1cc(-c2nc3ccccc3s2)ccc1N
